Measurements as given in PMC4153677, “Probing the Activity Modification Space of the Cysteine Peptidase Cathepsin K with Novel Allosteric Modifiers” (PLoS ONE, 2014).
Where two headings read alike, the source gives them in different places.

Assays:
[1] = target: T1, Recombinant human cathepsin K (Homo sapiens, UniProt P43235); test: Collagenolytic assays (calf skin collagen, SDS-PAGE); type: biochemical; set-up: key to collagen: qualitative value: qualitative values of 1 and 0 were used to signify inhibition and lack thereof, respectively; qualitative values of 1 and 0 were used to signify inhibition and lack thereof, respectively; a value of -1 was used to describe the concentration-dependent roles of glycosaminoglycans
T1 construct: made in house
T1 sequence (P43235 115-329): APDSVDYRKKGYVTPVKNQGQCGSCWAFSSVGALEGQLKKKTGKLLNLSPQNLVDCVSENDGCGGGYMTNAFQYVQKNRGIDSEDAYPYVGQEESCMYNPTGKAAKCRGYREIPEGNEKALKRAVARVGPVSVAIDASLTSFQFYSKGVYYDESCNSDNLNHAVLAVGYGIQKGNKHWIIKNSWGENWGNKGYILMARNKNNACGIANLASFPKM
Procedure: The use of synthetic substrates is practical for the determination of the mechanisms of modification. […] Therefore, all modifiers were also tested with two macromolecular substrates, calf skin collagen and azocasein. The collagenolytic activity was tested quantitatively by following the fragmentation of the characteristic type I collagen pattern into smaller products on SDS-PAGE after incubation of the samples with cathepsin K in the presence and absence of modifiers.
Soluble calf skin collagen (Worthington Biochemical Corporation, USA) was diluted in 100 mM sodium acetate buffer pH 5.50 containing 1 mM EDTA and 5 mM DTT to a final concentration of 0.5 mg/ml. Experiments were started by addition of cathepsin K (final enzyme concentration 0.6 µM) to the reaction mixture containing collagen and increasing concentrations of modifier. All assays were performed at 28°C with shaking on an Eppendorf Thermomixer Comfort. Samples were incubated for 2 hours and the reactions then blocked by addition of E-64 to a final concentration of 1 µM. 10 µg of digested collagen were analyzed by SDS-PAGE on 8% polyacrylamide gels and protein bands visualized by Coomassie Brilliant Blue R-250 staining.

[2] = target: T1, Recombinant human cathepsin K; test: Thermal stability of cathepsin K at pH 7.4 in the presence of modifiers; type: biochemical
Procedure: Cathepsin K was incubated at 37°C in 50 mM Hepes buffer pH 7.40 containing 1 mM EDTA and 5 mM DTT in the presence or absence of each modifier. The final enzyme concentration was 0.2 µM and final compounds concentrations were 2 mM, except compound 2, which was used at a concentration of 1 mM. All experiments were performed in Eppendorf Protein LoBind Tubes to minimize the adsorption of proteins on tube walls. Aliquots were withdrawn from the reaction mixtures at regular time intervals and their residual activity measured using the substrate Z-FR↓AMC (5 µM final concentration). Inactivation curves had exponential profiles that were fitted with the mathematical model for one-phase exponential decay to determine the half-life of the enzyme in each reaction mixture.

[3] = target: T1, Recombinant human cathepsin K; test: Azocasein degradation assays; type: biochemical; details: pH 5.5; substrate azocasein 3 mg/ml; 0.1 µM cathepsin K, 30 min 37°C, pH 5.50; compounds up to 2 mM (compound 2: 1 mM); read-out: Residual activity
From the text: Figure 4 Effect of modifiers on the degradation of macromolecular substrates. (A) Effect of increasing concentrations of compounds 1 and 2 on the degradation of calf skin collagen. Molecular mass standards are given in kDa and positions of α, β and γ chains of intact collagen are marked by arrows. (B) Effect of modifiers on azocasein degradation. (C) Effect of glycosaminoglycans and clusterin on azocasein degradation. Two different concentrations of each glycosaminoglycan were used in the experiments (10 µg/ml and 200 µg/ml). Error bars in panels B and C represent the SEM of three experiments. All experiments were performed in 100 mM sodium acetate buffer pH 5.50 containing 1 mM EDTA and 5 mM DTT, as described in detail in the Materials and Methods section. Abbreviations: CPD – compound, CS – chondroitin sulfate, DS – dermatan sulfate, HP – heparin.
Azocasein (Sigma-Aldrich, USA) was dissolved in 100 mM sodium acetate buffer pH 5.50 containing 1 mM EDTA and 5 mM DTT at a concentration of 3 mg/ml. Samples were incubated with 0.1 µM cathepsin K for 30 min at 37°C in the presence of each compound. […] Reactions were stopped by addition of trichloroacetic acid (final concentration 5% v/v), centrifuged, clear supernatants mixed with 0.5 M NaOH and the concentrations of solubilized peptides determined by measuring the absorbance at 440 nm. All experiments were performed in triplicates and appropriate blanks were run to take into account the absorption of azocasein and compounds alone. IC 50 values were determined as described previously.

[4] = Solubility in aqueous buffers; type: physicochemical; details: aqueous buffer, kinetic from dmso stock
Procedure: Recombinant human cathepsin K was prepared as described previously. Chemical probes were obtained from the U.S. NCI/DTP Open Chemical Repository or from ChemBridge (USA). All compounds were soluble in aqueous buffers at concentrations of at least 2 mM, except for compound 2, which was soluble up to a maximal concentration of 1 mM. Stock solutions of all compounds were prepared in DMSO. The fluorogenic substrate Z-FR↓AMC (benzyloxycarbonyl-Phe-Arg-7-amino-4-methylcoumarin) was from Bachem (Switzerland).

collagen: qualitative value ([1]; activity modification matrix): 1 | IC50 ([1]; degradation of calf skin collagen, read-out: IC 50 (estimated)): ~500 µM | IC50 ([1]; substrate calf skin collagen 0.5 mg/ml, 0.6 µM cathepsin K, 2 hours 28°C, pH 5.50, estimated, read-out: IC 50): 500 µM | stability: ln(sf), sf = ratio of half-lives in the presence and absence of modifier ([2]; 37 °C and pH 7.4): 0.79 | Increase of stability (half-life) of cathepsin K ([2]; pH 7.4, 37°C, versus enzyme only): about 2 fold | remaining activity [3]: 93 ± 7% | solubility [4]: ≤ 1000 µM
SMILES: OC(c1cc(-c2ccc(C(F)(F)F)cc2)nc(C(F)(F)F)c1)C1CCCCN1 (centres unmarked) [Compound 2, Piperidin-2-yl-[2-(trifluoromethyl)-6-[4-(trifluoromethyl)phenyl]pyridin-4-yl] methanol]
Effect on degradation of calf skin collagen ([1]; SDS-PAGE, increasing concentrations of modifier): concentration-dependent inhibitory effect
